Results taken from US20150276755A1, “METHODS FOR DETERMINING RESISTANCE AGAINST MOLECULES TARGETING PROTEINS” (AGENCY FOR SCIENCE, TECHNOLOGY AND RESEARCH, priority 2012, published 2015).
“Also recorded” adds a separate entry of the source.

Assays:
HDM2 M62A = target: T1, HDM2 M62A (Homo sapiens, UniProt Q00987, M62A); experiment: p53 reporter assay in p53/HDM2-null DKO cells, HDM2 M62A; format: cell-based; conditions: 20 μM
T1 construct: expressed in transfected cells; host or cells: DKO mouse embryonic fibroblasts (A12); HCT116 p53+/+ (A28)
T1 sequence (Q00987 whole entry M62A): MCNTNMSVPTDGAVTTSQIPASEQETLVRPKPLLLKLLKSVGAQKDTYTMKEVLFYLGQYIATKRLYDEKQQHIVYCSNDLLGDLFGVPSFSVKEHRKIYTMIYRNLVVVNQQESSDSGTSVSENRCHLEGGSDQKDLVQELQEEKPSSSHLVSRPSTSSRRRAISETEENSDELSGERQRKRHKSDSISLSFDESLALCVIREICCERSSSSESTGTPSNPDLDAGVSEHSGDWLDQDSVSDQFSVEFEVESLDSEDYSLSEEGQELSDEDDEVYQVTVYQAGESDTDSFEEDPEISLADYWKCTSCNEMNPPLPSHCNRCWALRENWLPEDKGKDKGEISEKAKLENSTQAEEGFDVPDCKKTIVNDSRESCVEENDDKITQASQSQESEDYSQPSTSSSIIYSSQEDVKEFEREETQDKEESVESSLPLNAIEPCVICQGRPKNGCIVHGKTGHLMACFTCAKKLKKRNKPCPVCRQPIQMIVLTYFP
Protocol: (§1) DKO (p53/HDM2 null) cells were maintained in Dulbecco's modified Eagle's medium (DMEM) with 10% foetal calf serum (FCS) and 1% penicillin/streptomycin. The cells were seeded at 1.0×10^5 cells/well in 6-well plates, 24 hours prior to transfection. […] In all cases, the total amount of plasmid DNA transfected per well was equilibrated by addition of the parental vector pcDNA3.1a(+).
(§2) DKO cells were harvested 24 hours after transfection and […] activities were assessed using the Dual-light System (Applied Biosystems) according to the manufacturer's protocol. The β-galactosidase activity was normalized with luciferase activity for each sample. To check for expression levels of relevant proteins via Western blot, 2.5 μg of the cell lysates were subjected to electrophoresis, transferred to nitrocellulose membranes and probed for p53 with horseradish peroxidise conjugated DO1 antibody, for HDM2 and actin with anti-HA antibody and AC15 antibody respectively followed by rabbit anti-mouse.
(§3) Mouse embryonic fibroblast p53/Mdm2 double-knockout (DKO) cells (a kind gift from Guillermina Lozano) and H1299 p53^−/− cells were maintained in Dulbecco's modified Eagle's medium (DMEM) with 10% (v/v) foetal calf serum (FCS) and 1% (v/v) penicillin/streptomycin. The cells were seeded at 1.0×10^5 cells/well in 6-well plates, 24 hours prior to transfection. […]

[1] = target: T2, HDM2 Q24R-p53 interaction (Homo sapiens, UniProt Q00987, Q24R); experiment: In vitro pull-down (co-immunoprecipitation, Western blot), HDM2 Q24R; format: biochemical; conditions: 10 μM
T2 construct: made in house; host or cells: cell-free in vitro transcription-translation (IVT)
T2 sequence (Q00987 whole entry Q24R): as the sequence (Q00987 whole entry M62A) above, with Q24R, A62M counted along it
Protocol: (§4) Protein G beads were incubated with anti-HA (1 μg per 10 μL beads) for 1 hour in PEST-3% BSA and subsequently washed twice in PBST-0.1% BSA. IVT-expressed protein was incubated with the beads on a rotator for 30 mins. […] IVT-containing secondary protein was added to the mixture and incubation allowed for 1 hour. Beads were finally washed thrice in PBST-0.1% BSA and thrice with PBS, and bound proteins eluted by resuspension in 20 μL SDS-PAGE loading buffer and incubation at 95° C. for 5 minutes. Where required, blank IVT extract (no template DNA added) was used as control. The eluates were subjected to electrophoresis, transferred to nitrocellulose membranes and probed for p53 with horseradish peroxidise conjugated DO1 antibody (Santa Cruz) or for HDM2 with anti-HA antibody followed by rabbit anti-mouse (Dakocytomation).
(§5) Protein G beads (Invitrogen) were incubated with anti-HA (1 μg per 10 μL beads) for 1 hour in PBST-3% BSA and subsequently washed twice in PBST-0.1% BSA. IVT expressed wild-type or mutant HDM2 was incubated with the beads on a rotator for 30 mins. […] IVT-expressed p53 was added to the mixture and incubation allowed for 1 hour. Beads were finally washed thrice in PBST-0.1% BSA and thrice with PBS, and bound proteins eluted by resuspension in 20 μL SDS-PAGE loading buffer and incubation at 95° C. for 5 minutes. […]

[2] = target: T3, HDM2 M62A-p53 interaction (Homo sapiens, UniProt Q00987, M62A); experiment: In vitro pull-down (co-immunoprecipitation, Western blot), HDM2 M62A; format: biochemical; conditions: 10 μM
T3 construct: made in house; host or cells: cell-free in vitro transcription-translation (IVT)
T3 sequence (Q00987 whole entry M62A): as the sequence (Q00987 whole entry M62A) above
Protocol: as §4, §5

wild-type HDM2 = target: T4, wild-type HDM2 (Homo sapiens, UniProt Q00987); experiment: p53 reporter assay in p53/HDM2-null DKO cells, wild-type HDM2; format: cell-based; conditions: 20 μM
T4 construct: expressed in transfected cells; host or cells: H1299 p53-/- cells (A5); mouse embryonic fibroblast p53/Mdm2 double-knockout (DKO) cells (A7)
T4 sequence (Q00987 whole entry): as the sequence (Q00987 whole entry M62A) above, with A62M counted along it
Protocol: as §1, §2, §3

[3] = target: T5, wild-type HDM2-p53 interaction (Homo sapiens, UniProt Q00987); experiment: In vitro pull-down (co-immunoprecipitation, Western blot), wild-type HDM2; format: biochemical; conditions: 10 μM
T5 construct: made in house; host or cells: cell-free in vitro transcription-translation (IVT)
T5 sequence (Q00987 whole entry): as the sequence (Q00987 whole entry M62A) above, with A62M counted along it
Protocol: as §4, §5

[4] = target: purified HDM2 (amino acids 1-125) Q24R (human) (UniProt Q00987); experiment: competitive fluorescence anisotropy against FAM-12-1 peptide, apparent Kd
Chain of purified HDM2 (amino acids 1-125) Q24R (human) (Q00987 1-125 Q24R limits assumed): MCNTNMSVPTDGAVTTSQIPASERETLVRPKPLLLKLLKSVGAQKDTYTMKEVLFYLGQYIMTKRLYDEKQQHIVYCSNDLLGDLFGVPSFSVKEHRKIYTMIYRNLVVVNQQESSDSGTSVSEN

[5] = target: purified HDM2 (amino acids 1-125) P20L (human) (UniProt Q00987); experiment: as above
Chain of purified HDM2 (amino acids 1-125) P20L (human) (Q00987 1-125 P20L limits assumed): as the sequence (Q00987 1-125 Q24R limits assumed) above, with P20L, R24Q counted along it

[6] = target: purified HDM2 (amino acids 1-125), wild-type (human) (UniProt Q00987); experiment: as above
Chain of purified HDM2 (amino acids 1-125), wild-type (human) (Q00987 1-125 limits assumed): as the sequence (Q00987 1-125 Q24R limits assumed) above, with R24Q counted along it

[7] = target: purified HDM2 (amino acids 1-125) M62A (human) (UniProt Q00987); experiment: as above
Chain of purified HDM2 (amino acids 1-125) M62A (human) (Q00987 1-125 M62A limits assumed): as the sequence (Q00987 1-125 Q24R limits assumed) above, with R24Q, M62A counted along it

Row | p53 activity restored, of that seen in absence of HDM2 co-transfection (HDM2 M62A) [%] | p53 activity restored, of that seen in absence of HDM2 co-transfection (wild-type HDM2) [%] | effect on p53 binding to immobilised HDM2 (Western blot) [3] | Kd [4] [nM] | Kd [5] [nM] | Kd [6] [nM] | Kd [7] [nM] | Molecule | effect on p53 binding to immobilised HDM2 (Western blot) [1] | effect on p53 binding to immobilised HDM2 (Western blot) [2]
1 | 47 | 51 | showed inhibition of p53 binding | – | – | – | – | CC(=O)N[C@H](C(=O)N[C@@H](CO)C(=O)N[C@@H](Cc1ccccc1)C(=O)N[C@]1(C)CCCCCCC=CCCC[C@@](C)(C(N)=O)NC(=O)[C@H](CC(C)C)NC(=O)[C@H](CC(C)C)NC(=O)[C@H](C)NC(=O)[C@H](Cc2c[nH]c3cc(Cl)ccc23)NC(=O)[C@H](Cc2ccc(O)cc2)NC(=O)[C@H](CCC(=O)O)NC1=O)[C@@H](C)O [MO11] | showed inhibition of p53 binding; also recorded: abrogate the mutant HDM2-p53 interaction as efficiently as Nutlin inhibits the wildtype HDM2-p53 interaction | showed inhibition of p53 binding; also recorded: abrogate the mutant HDM2-p53 interaction as efficiently as Nutlin inhibits the wildtype HDM2-p53 interaction
2 | – | – | – | 10.4 | 17.2 | 13.9 | 29.6 | p53 peptide | – | –
